Laboratory results taken from PMC9814781, “Structure-based design of a dual-warhead covalent inhibitor of FGFR4” (Communications Chemistry, 2022).
One block for each compound: values may come before it.

What was measured:
FGFR4(C552A) mutant = settings: cited from earlier work
FGFR4(C552A) = target: T1, FGFR4(C552A) (Homo sapiens, UniProt P22455, C552A); assay: MALDI-TOF MS covalent binding
T1 construct: FGFR4 (residues 445–753); 6xHis + PreScission site (N, cleaved yes); made in house; host or cells: Escherichia coli Rosseta
T1 sequence (P22455 445-753 C552A): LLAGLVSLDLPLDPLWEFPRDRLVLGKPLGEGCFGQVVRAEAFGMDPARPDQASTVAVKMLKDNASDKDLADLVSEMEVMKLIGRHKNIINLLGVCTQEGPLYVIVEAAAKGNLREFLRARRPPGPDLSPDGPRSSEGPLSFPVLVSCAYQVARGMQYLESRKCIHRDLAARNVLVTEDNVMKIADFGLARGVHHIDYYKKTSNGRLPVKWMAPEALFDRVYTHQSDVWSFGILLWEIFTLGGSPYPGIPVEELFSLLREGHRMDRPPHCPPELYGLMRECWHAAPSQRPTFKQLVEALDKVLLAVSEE
Experimental: (§1) Wild-type FGFRs and mutant FGFRs were prepared as previously described[25]–[27]. […] The N-terminal of the recombinant proteins were contained a 6xHis tag followed by a PreScission cleavage site for FGFR1, FGFR2, FGFR3, and FGFR4. Site-directed mutagenesis of FGFR4 was generated according to the ClonExpress II One Step Cloning Kit (Vazyme) using the pET28a-FGFR4 plasmid as the template. […] For crystallization experiments, the wild-type FGFR4 plasmid was co-expressed with untagged YOPH to obtain non-phosphorylated proteins. The proteins were first purified by Ni-NTA affinity chromatography. The 6 × His tag was removed by PreScission protease. Then, anion exchange chromatography (Mono Q) and size exclusion chromatography (if necessary) were exploited for further purification. The target proteins were concentrated to ~5–15 mg/mL and flash frozen for storage at −80°C for subsequent studies.

FGFR4 = target: T2, FGFR4 (Homo sapiens, UniProt P22455); assay: MALDI-TOF MS covalent binding
T2 construct: purchased ICE Bioscience
T2 sequence (P22455 22-802): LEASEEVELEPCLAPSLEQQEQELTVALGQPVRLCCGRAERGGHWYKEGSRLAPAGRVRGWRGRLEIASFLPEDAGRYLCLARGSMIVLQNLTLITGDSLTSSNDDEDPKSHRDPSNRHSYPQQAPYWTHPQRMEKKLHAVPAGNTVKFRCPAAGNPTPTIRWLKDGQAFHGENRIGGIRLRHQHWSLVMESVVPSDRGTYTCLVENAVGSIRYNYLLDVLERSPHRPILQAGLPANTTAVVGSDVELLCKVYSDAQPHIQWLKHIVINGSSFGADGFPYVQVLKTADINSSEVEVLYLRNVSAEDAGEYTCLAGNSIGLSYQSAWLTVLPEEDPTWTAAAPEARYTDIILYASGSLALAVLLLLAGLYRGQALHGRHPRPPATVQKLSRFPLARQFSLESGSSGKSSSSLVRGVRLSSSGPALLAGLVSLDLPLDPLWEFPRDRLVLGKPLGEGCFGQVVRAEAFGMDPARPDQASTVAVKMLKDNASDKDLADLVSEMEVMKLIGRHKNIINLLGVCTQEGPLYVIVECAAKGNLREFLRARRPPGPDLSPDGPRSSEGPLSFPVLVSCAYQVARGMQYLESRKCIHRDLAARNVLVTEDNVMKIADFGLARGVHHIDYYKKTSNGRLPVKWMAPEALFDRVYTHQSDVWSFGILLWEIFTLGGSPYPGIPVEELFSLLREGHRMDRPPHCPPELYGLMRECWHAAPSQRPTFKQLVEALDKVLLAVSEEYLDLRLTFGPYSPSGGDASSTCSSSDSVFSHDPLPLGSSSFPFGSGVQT
Experimental: as §1

FGFR4(C477A) = target: T3, FGFR4(C477A) (Homo sapiens, UniProt P22455, C477A); assay: MALDI-TOF MS covalent binding
T3 construct: FGFR4 (residues 445–753); 6xHis + PreScission site (N, cleaved yes); made in house; host or cells: Escherichia coli Rosseta
T3 sequence (P22455 445-753 C477A): as the sequence (P22455 445-753 C552A) above, with C33A, A108C counted along it
Experimental: as §1

FGFR1 = FGFR1 (Homo sapiens, UniProt P11362); assay: MALDI-TOF MS covalent binding
Chain of FGFR1 (P11362 22-822): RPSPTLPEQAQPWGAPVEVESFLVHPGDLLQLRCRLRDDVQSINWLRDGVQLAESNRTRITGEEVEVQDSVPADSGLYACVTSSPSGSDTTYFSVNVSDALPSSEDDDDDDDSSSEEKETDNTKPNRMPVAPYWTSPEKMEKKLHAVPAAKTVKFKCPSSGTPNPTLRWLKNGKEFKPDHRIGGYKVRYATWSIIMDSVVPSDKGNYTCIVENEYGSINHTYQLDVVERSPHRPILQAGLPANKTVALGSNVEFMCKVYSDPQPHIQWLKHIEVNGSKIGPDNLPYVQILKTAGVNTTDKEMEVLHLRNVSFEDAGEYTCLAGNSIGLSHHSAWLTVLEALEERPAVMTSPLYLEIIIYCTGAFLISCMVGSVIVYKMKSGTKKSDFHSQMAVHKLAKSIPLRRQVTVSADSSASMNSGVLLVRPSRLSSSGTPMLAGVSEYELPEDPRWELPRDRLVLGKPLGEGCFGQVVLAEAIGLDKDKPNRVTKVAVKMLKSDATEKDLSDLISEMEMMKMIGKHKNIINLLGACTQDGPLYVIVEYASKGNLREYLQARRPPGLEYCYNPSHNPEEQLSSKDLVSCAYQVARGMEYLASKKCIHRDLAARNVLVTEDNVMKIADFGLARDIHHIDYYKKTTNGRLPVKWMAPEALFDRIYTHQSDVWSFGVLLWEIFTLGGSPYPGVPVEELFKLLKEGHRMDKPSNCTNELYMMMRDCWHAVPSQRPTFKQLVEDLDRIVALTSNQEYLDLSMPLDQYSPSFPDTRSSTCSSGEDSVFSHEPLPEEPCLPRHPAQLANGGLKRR
Experimental: The N-terminal of the recombinant proteins were contained a 6xHis tag followed by a PreScission cleavage site for FGFR1, FGFR2, FGFR3, and FGFR4. […] The proteins were first purified by Ni-NTA affinity chromatography. The 6 × His tag was removed by PreScission protease. Then, anion exchange chromatography (Mono Q) and size exclusion chromatography (if necessary) were exploited for further purification. The target proteins were concentrated to ~5–15 mg/mL and flash frozen for storage at −80°C for subsequent studies.

GSH reaction assay = assay type: in vitro ADME; settings: GSH 5 mM, inhibitor 1 mM, 37°C, 10–60 min
Experimental: GSH (5 mM) and inhibitor (1 mM) or DMSO control were mixed in equal volumes and reacted at 37°C for 10 min, 20 min, 30 min, 40 min, 50 min, and 60 min. The remaining GSH was detected with DTNB (Beyotime, China), and the absorption light was measured at 412 nm on a plate reader (Perkin-Elmer). Data were determined using the time (min) versus % of control in Origin 2018 software.

Structure (SMILES): C=CC(=O)N[C@H]1CCOC[C@H]1Nc1ncc2cc(-c3c(Cl)c(OC)cc(OC)c3Cl)ccc2n1 [BLU554]
IC50 (FGFR4(C552A) mutant): > 10 µM

covalent bond formation (mass shift) (FGFR4(C552A)): not with FGFR4(C552A)
covalent bond formation (mass shift) (FGFR4(C477A)): forms a covalent bond with FGFR4(C477A)
covalent bond formation (mass shift) (FGFR1): forms a covalent bond with FGFR1
Structure (SMILES): C=CC(=O)Nc1cccc(C)c1Nc1ncc2c(n1)N(CCCN1CCN(C(=O)C=C)CC1)C(=O)N(c1cc(OC)cc(OC)c1)C2 [CXF-008]
covalent bond formation (mass shift) (FGFR4): only forms one covalent bond with Cys552 of FGFR4

GSH reactivity (remaining GSH, DTNB) (GSH reaction assay): time-dependent decrease in GSH
Structure (SMILES): C=CC(=O)N1CCN(CCCn2c(=O)c(-c3c(Cl)c(OC)cc(OC)c3Cl)cc3cnc(NC)nc32)CC1 [PRN1371, 8-(3-(4-Acryloylpiperazin-1-yl)propyl)-6-(2,6-dichloro-3,5-dimethoxyphenyl)-2-(methylamino)pyrido[2,3-d]pyrimidin-7(8H)-one, reference compound]
